In patent US20230312564A1, “AROMATIC RING-LACTAM COMPOUND, PREPARATION METHOD THEREFOR AND USE THEREOF” (SHANGHAI RINGENE BIOPHARMA CO., LTD., priority 2020, published 2023):

Key:
[1] = In-vivo pharmacokinetic parameters in mice; design: species or system Balb-c mice
Summary of the method: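 Male SD rats or Balb-c mice were dosed intravenously at 1 mg/kg or orally at 5 mg/kg. Jugular-vein plasma was sampled up to 24 h and analysed by LC-MS/MS. Non-compartmental analysis gave AUC, MRT, Cmax, Tmax, T1/2, Vd and oral bioavailability (F).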

CYP1A2 = target: T1, CYP1A2 (Homo sapiens, UniProt P05177); assay: Direct inhibition test (DI test) in human liver microsomes, CYP1A2
T1 sequence (P05177 1-516): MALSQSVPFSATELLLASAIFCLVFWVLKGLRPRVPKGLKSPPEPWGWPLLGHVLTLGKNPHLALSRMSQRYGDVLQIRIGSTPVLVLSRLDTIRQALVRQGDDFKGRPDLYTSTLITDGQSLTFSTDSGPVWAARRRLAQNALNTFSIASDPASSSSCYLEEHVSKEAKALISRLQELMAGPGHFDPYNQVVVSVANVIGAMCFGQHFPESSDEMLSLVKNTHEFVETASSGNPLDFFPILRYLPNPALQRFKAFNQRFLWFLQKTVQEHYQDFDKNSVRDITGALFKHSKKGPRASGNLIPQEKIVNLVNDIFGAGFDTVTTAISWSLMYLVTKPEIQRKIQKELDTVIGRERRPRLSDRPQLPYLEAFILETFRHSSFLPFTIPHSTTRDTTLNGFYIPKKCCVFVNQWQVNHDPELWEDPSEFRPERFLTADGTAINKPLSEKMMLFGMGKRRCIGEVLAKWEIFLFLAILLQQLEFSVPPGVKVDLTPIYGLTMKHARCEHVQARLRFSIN
Protocol: (2) Direct inhibition test (DI test): A system containing 100 μL of human liver microsomes (final concentration of 0.2 mg/mL) was subjected to a direct inhibition incubation, and the system contained NADPH (final concentration of 1 mM), 10 μM compound, positive inhibitor cocktail (10 μM ketoconazole, 10 μM quinidine, 100 μM sulfaphenazole, 10 μM α-naphthoflavone, 1,000 μM tranylcypromine), negative control (BPS of 0.1% DMSO), and mixed probe substrates (10 μM midazolam, 100 μM testosterone, 10 μM dextromethorphan, […], 100 μM phenacetin, 100 μM mephenytoin). After 20 minutes of incubation, the reaction was stopped. The relative activity of the enzyme was calculated by measuring the relative production of metabolites.

[2] = system: Colo-205 transplanted tumor; assay: Growth inhibition of nude mice Colo-205 transplanted tumor; type: in vivo
[3] = male, Balb-c, mouse, plasma, IV, 1 mg/kg
[4] = male, Balb-c, mouse, plasma, PO, 5 mg/kg

F ([1]; PO 5 mg/kg vs IV 1 mg/kg): 59% | AUC(0-inf) [1, 3]: 368 nM·h | AUC(0-t) [1, 3]: 365 nM·h | MRT inf [1, 3]: 12 min | clearance [1, 3]: 4.68 L/h/kg | half-life [1, 3]: 36 min | Vd ([1]; male, Balb-c, mouse, plasma, IV, 1 mg/kg, read-out: Vss): 1 L/kg | AUC(0-inf) [1, 4]: 1090 nM·h | AUC(0-t) [1, 4]: 1080 nM·h | Cmax [1, 4]: 1.2 µM | Tmax [1, 4]: 18 min | half-life [1, 4]: 66 min | IC50 (CYP1A2): > 10 µM
SMILES: COc1cc(F)cc([C@@H](CO)NC(=O)[C@@H](C)N2Cc3ccc(-c4nc(NC5CCOCC5)ncc4F)c(F)c3C2=O)c1 [Embodiment 40]
T/C ([2]; 25 mg/kg, bidx21, po): 7.2% | Initial weight (D0) ([2]; 25 mg/kg, bidx21, po): 19.5 g | Terminal weight (D21) ([2]; 25 mg/kg, bidx21, po): 21.0 g | Initial tumor volume ([2]; 25 mg/kg, bidx21, po): 97 ± 26 mm^3 | Terminal tumor volume ([2]; 25 mg/kg, bidx21, po): 67 ± 14 mm^3 | T/C ([2]; 50 mg/kg, qdx21, po): 23.2% | Initial weight (D0) ([2]; 50 mg/kg, qdx21, po): 21.4 g | Terminal weight (D21) ([2]; 50 mg/kg, qdx21, po): 23.2 g | Initial tumor volume ([2]; 50 mg/kg, qdx21, po): 98 ± 22 mm^3 | Terminal tumor volume ([2]; 50 mg/kg, qdx21, po): 238 ± 130 mm^3 | effect on the tumor weight (in words) ([2]; dose of 50 mg/kg or 25 mg/kg): no significant effect on the tumor weight | tumor growth of Colo-205 transplanted tumor nude mice (in words) ([2]; dose of 50 mg/kg or 25 mg/kg): significantly inhibited the tumor growth
